# From patent US6355799B1, “Substituted benzene compounds, process for their preparation, and herbicidal and defoliant compositions containing them” (ISK Americas Incorporated, priority 1997, dated 2002)
# Legend:
# Assay type in all cases: in vivo
# [1] = tested on: field corn (Zea mays L., var. Dekalb 535, CORN); assay: Post-emerge test, crop safety; details: post-emerge, 14 days after application, rating scale 0-100
# Procedure, shortened: (§1)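 Each test used a mechanized track sprayer delivering 187 l/ha of acetone solution at 15–1000 g ai/ha. Post-emerge foliage at 2–3 leaves was treated with added 0.25% v/v non-ionic surfactant and bottom-watered only. Injury was assessed on day 14, where 100 means total kill.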
# [2] = tested on: upland rice (Oryza sp., var. Tebonnet, RICE); assay: Post-emerge test, crop safety; details: post-emerge, 14 days after application, rating scale 0-100
# Procedure, shortened: as §1
# [3] = tested on: ivyleaf morningglory (Ipomoea hederacea, IPOHE); assay: Pre-emerge test, greenhouse herbicide activity screening; details: pre-emerge, 14 days after application
# Procedure, shortened: (§2)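 Plants grown in 10 cm pots of sandy loam mix received acetone-dissolved compounds through a moving flat-fan nozzle. Doses ranged from 15 to 1000 g ai/ha. Pre-emerge pots were seeded one day earlier, post-emerge pots 8–21 days earlier. Fourteen days on, each pot was graded 0–100 for damage.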
# [4] = tested on: velvetleaf (Abutilon theophrasti, ABUTH); assay: as above; details: pre-emerge, 14 days after application
# Procedure, shortened: as §2
# [5] = tested on: green foxtail (Setaria viridis, SETVI); assay: as above; details: pre-emerge, 14 days after application
# Procedure, shortened: as §2
# [6] = tested on: barnyardgrass (Echinochloa crus-galli, ECHCG); assay: as above; details: pre-emerge, 14 days after application
# Procedure, shortened: as §2
# [7] = tested on: lambsquarters (Chenopodium album, CHEAL); assay: as above; details: pre-emerge, 14 days after application
# Procedure, shortened: as §2
# [8] = tested on: sicklepod (Cassia obtusifolia, CASOB); assay: as above; details: pre-emerge, 14 days after application
# Procedure, shortened: as §2
# [9] = tested on: johnsongrass (Sorghum halepense, SORHA); assay: as above; details: pre-emerge, 14 days after application
# Procedure, shortened: as §2
# [10] = tested on: large crabgrass (Digitaria sanguinalis, DIGSA); assay: as above; details: pre-emerge, 14 days after application
# Procedure, shortened: as §2
# [11] = tested on: redroot pigweed (Amaranthus retroflexus, AMARE); assay: as above; details: pre-emerge, 14 days after application
# Procedure, shortened: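 Compounds in acetone were track-sprayed at 15-1000 g ai/ha (187 l/ha) on sandy loam pots: pre-emerge one day after seeding, post-emerge at 2-3 leaf stage with 0.25% v/v non-ionic surfactant. Phytotoxicity was rated 14 days later on a 0 (no damage) to 100 (complete death) scale.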
# [12] = tested on: ivyleaf morningglory (Ipomoea hederacea, IPOHE); assay: Post-emerge test, greenhouse herbicide activity screening; details: post-emerge, 14 days after application, rating scale 0-100
# Procedure, shortened: (§3)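 Herbicidal damage is scored 0 (none) to 100 (complete plant death) two weeks after a simulated field spray. Rates span 15–1000 g ai/ha, delivered in acetone at 187 l/ha. For post-emergence treatments, plants have 2–3 leaves and the spray carries 0.25% v/v non-ionic surfactant.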
# [13] = tested on: velvetleaf (Abutilon theophrasti, ABUTH); assay: as above; details: post-emerge, 14 days after application, rating scale 0-100
# Procedure, shortened: as §3
# [14] = tested on: green foxtail (Setaria viridis, SETVI); assay: as above; details: post-emerge, 14 days after application, rating scale 0-100
# Procedure, shortened: as §3
# [15] = tested on: barnyardgrass (Echinochloa crus-galli, ECHCG); assay: as above; details: post-emerge, 14 days after application, rating scale 0-100
# Procedure, shortened: as §3
# [16] = tested on: lambsquarters (Chenopodium album, CHEAL); assay: as above; details: post-emerge, 14 days after application, rating scale 0-100
# Procedure, shortened: as §3
# [17] = tested on: sicklepod (Cassia obtusifolia, CASOB); assay: as above; details: post-emerge, 14 days after application, rating scale 0-100
# Procedure, shortened: as §3
# [18] = tested on: johnsongrass (Sorghum halepense, SORHA); assay: as above; details: post-emerge, 14 days after application, rating scale 0-100
# Procedure, shortened: as §3
# [19] = tested on: large crabgrass (Digitaria sanguinalis, DIGSA); assay: as above; details: post-emerge, 14 days after application, rating scale 0-100
# Procedure, shortened: as §3
# [20] = tested on: redroot pigweed (Amaranthus retroflexus, AMARE); assay: as above; details: post-emerge, 14 days after application
# Procedure, shortened: as §3
# [21] = tested on: field corn (Zea mays L., var. Dekalb 535, CORN); assay: Pre-emerge test, crop safety; details: pre-emerge, 14 days after application; for phytotoxicity rating CORN (crop damage): scale 0-100; for phytotoxicity rating CORN: rating scale 0-100
# Procedure, shortened: (§4)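 Compounds in acetone were track-sprayed at 187 l/ha, 15–1000 g ai/ha, onto sandy loam pots. Pre-emerge seeds were sown one day before spraying, with surface watering afterwards. Post-emerge plants were at the 2–3 leaf stage and sprayed with 0.25% v/v non-ionic surfactant. Injury was rated 0–100 at 14 days.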
# [22] = tested on: upland rice (Oryza sp., var. Tebonnet, RICE); assay: Pre-emerge test, crop safety; details: pre-emerge, 14 days after application; for phytotoxicity rating RICE (crop damage): scale 0-100; for phytotoxicity rating RICE: rating scale 0-100
# Procedure, shortened: as §4
# [23] = 250 g ai/ha, rating scale 0-100
smiles,measurement,setting,value
COc1c(Br)cc(F)c(-n2c(=O)cc(C(F)(F)F)n(C)c2=O)c1NC(=O)C=Cc1ccccc1 [2-177],CORN phytotoxicity rating (crop damage),[1]; 63 g ai/ha,15
same,CORN phytotoxicity rating (crop damage),[1]; 250 g ai/ha,20
same,RICE phytotoxicity rating (crop damage),[2]; 63 g ai/ha,50
same,RICE phytotoxicity rating (crop damage),[2]; 250 g ai/ha,60
same,phytotoxicity rating IPOHE,"[3]; 63 g ai/ha, scale 0-100",40
same,phytotoxicity rating IPOHE,"[3]; 250 g ai/ha, scale 0-100",90
same,phytotoxicity rating ABUTH,"[4]; 63 g ai/ha, scale 0-100",70
same,phytotoxicity rating ABUTH,"[4]; 250 g ai/ha, scale 0-100",100
same,phytotoxicity rating SETVI,"[5]; 63 g ai/ha, scale 0-100",40
same,phytotoxicity rating SETVI,"[5]; 250 g ai/ha, scale 0-100",70
same,phytotoxicity rating ECHCG,"[6]; 63 g ai/ha, scale 0-100",0
same,phytotoxicity rating ECHCG,"[6]; 250 g ai/ha, scale 0-100",40
same,phytotoxicity rating CHEAL,"[7]; 63 g ai/ha, scale 0-100",100
same,phytotoxicity rating CHEAL,"[7]; 250 g ai/ha, scale 0-100",100
same,phytotoxicity rating CASOB,"[8]; 63 g ai/ha, scale 0-100",0
same,phytotoxicity rating CASOB,"[8]; 250 g ai/ha, scale 0-100",40
same,phytotoxicity rating SORHA,"[9]; 63 g ai/ha, scale 0-100",0
same,phytotoxicity rating SORHA,"[9]; 250 g ai/ha, scale 0-100",30
same,phytotoxicity rating DIGSA,"[10]; 63 g ai/ha, scale 0-100",30
same,phytotoxicity rating DIGSA,"[10]; 250 g ai/ha, scale 0-100",70
same,phytotoxicity rating AMARE,"[11]; 63 g ai/ha, scale 0-100",100
same,phytotoxicity rating AMARE,"[11]; 250 g ai/ha, scale 0-100",100
same,IPOHE phytotoxicity rating,[12]; 63 g ai/ha,100
same,IPOHE phytotoxicity rating,[12]; 250 g ai/ha,100
same,ABUTH phytotoxicity rating,[13]; 63 g ai/ha,100
same,ABUTH phytotoxicity rating,[13]; 250 g ai/ha,100
same,SETVI phytotoxicity rating,[14]; 63 g ai/ha,45
same,SETVI phytotoxicity rating,[14]; 250 g ai/ha,60
same,ECHCG phytotoxicity rating,[15]; 63 g ai/ha,20
same,ECHCG phytotoxicity rating,[15]; 250 g ai/ha,40
same,CHEAL phytotoxicity rating,[16]; 63 g ai/ha,100
same,CHEAL phytotoxicity rating,[16]; 250 g ai/ha,100
same,CASOB phytotoxicity rating,[17]; 63 g ai/ha,100
same,CASOB phytotoxicity rating,[17]; 250 g ai/ha,100
same,SORHA phytotoxicity rating,[18]; 63 g ai/ha,30
same,SORHA phytotoxicity rating,[18]; 250 g ai/ha,40
same,DIGSA phytotoxicity rating,[19]; 63 g ai/ha,30
same,DIGSA phytotoxicity rating,[19]; 250 g ai/ha,50
same,AMARE phytotoxicity rating,"[20]; 63 g ai/ha, rating scale 0-100",100
same,AMARE phytotoxicity rating,[20]; [23],100
same,phytotoxicity rating CORN (crop damage),[21]; 63 g ai/ha,0
same,phytotoxicity rating CORN (crop damage),[21]; 250 g ai/ha,10
same,phytotoxicity rating RICE (crop damage),[22]; 63 g ai/ha,10
same,phytotoxicity rating RICE (crop damage),[22]; 250 g ai/ha,20
CCOC(=O)C(Cl)Cc1cc(Cl)cc(F)c1-n1c(=O)cc(C(F)(F)F)n(C)c1=O (stereo not shown) [14-60],Post-emerge Herbicidal Activity CORN (crop damage rating),[1]; 63 g ai/ha,0
same,Post-emerge Herbicidal Activity CORN (crop damage rating),[1]; 250 g ai/ha,60
same,Post-emerge Herbicidal Activity RICE (crop damage rating),[2]; 63 g ai/ha,10
same,Post-emerge Herbicidal Activity RICE (crop damage rating),[2]; 250 g ai/ha,20
same,phytotoxicity rating IPOHE,"[3]; 63 g ai/ha, rating scale 0-100",90
same,phytotoxicity rating IPOHE,[3]; [23],100
same,phytotoxicity rating ABUTH,"[4]; 63 g ai/ha, rating scale 0-100",100
same,phytotoxicity rating ABUTH,[4]; [23],100
same,phytotoxicity rating SETVI,"[5]; 63 g ai/ha, rating scale 0-100",10
same,phytotoxicity rating SETVI,[5]; [23],60
same,phytotoxicity rating ECHCG,"[6]; 63 g ai/ha, rating scale 0-100",0
same,phytotoxicity rating ECHCG,[6]; [23],20
same,phytotoxicity rating CHEAL,"[7]; 63 g ai/ha, rating scale 0-100",100
same,phytotoxicity rating CHEAL,[7]; [23],100
same,phytotoxicity rating CASOB,"[8]; 63 g ai/ha, rating scale 0-100",0
same,phytotoxicity rating CASOB,[8]; [23],0
same,phytotoxicity rating SORHA,"[9]; 63 g ai/ha, rating scale 0-100",0
same,phytotoxicity rating SORHA,[9]; [23],10
same,phytotoxicity rating DIGSA,"[10]; 63 g ai/ha, rating scale 0-100",0
same,phytotoxicity rating DIGSA,[10]; [23],30
same,phytotoxicity rating AMARE,"[11]; 63 g ai/ha, rating scale 0-100",100
same,phytotoxicity rating AMARE,[11]; [23],100
same,Post-emerge Herbicidal Activity IPOHE (phytotoxicity rating),[12]; 63 g ai/ha,100
same,Post-emerge Herbicidal Activity IPOHE (phytotoxicity rating),[12]; 250 g ai/ha,100
same,Post-emerge Herbicidal Activity ABUTH (phytotoxicity rating),[13]; 63 g ai/ha,100
same,Post-emerge Herbicidal Activity ABUTH (phytotoxicity rating),[13]; 250 g ai/ha,100
same,Post-emerge Herbicidal Activity SETVI (phytotoxicity rating),[14]; 63 g ai/ha,20
same,Post-emerge Herbicidal Activity SETVI (phytotoxicity rating),[14]; 250 g ai/ha,30
same,Post-emerge Herbicidal Activity ECHCG (phytotoxicity rating),[15]; 63 g ai/ha,50
same,Post-emerge Herbicidal Activity ECHCG (phytotoxicity rating),[15]; 250 g ai/ha,75
same,Post-emerge Herbicidal Activity CHEAL (phytotoxicity rating),[16]; 63 g ai/ha,99
same,Post-emerge Herbicidal Activity CHEAL (phytotoxicity rating),[16]; 250 g ai/ha,100
same,Post-emerge Herbicidal Activity CASOB (phytotoxicity rating),[17]; 63 g ai/ha,40
same,Post-emerge Herbicidal Activity CASOB (phytotoxicity rating),[17]; 250 g ai/ha,70
same,Post-emerge Herbicidal Activity SORHA (phytotoxicity rating),[18]; 63 g ai/ha,20
same,Post-emerge Herbicidal Activity SORHA (phytotoxicity rating),[18]; 250 g ai/ha,50
same,Post-emerge Herbicidal Activity DIGSA (phytotoxicity rating),[19]; 63 g ai/ha,10
same,Post-emerge Herbicidal Activity DIGSA (phytotoxicity rating),[19]; 250 g ai/ha,60
same,Post-emerge Herbicidal Activity AMARE (phytotoxicity rating),"[20]; 63 g ai/ha, rating scale 0-100 (0 no damage, 100 complete death)",70
same,Post-emerge Herbicidal Activity AMARE (phytotoxicity rating),[20]; [23],100
same,phytotoxicity rating CORN,[21]; 63 g ai/ha,0
same,phytotoxicity rating CORN,[21]; 250 g ai/ha,0
same,phytotoxicity rating RICE,[22]; 63 g ai/ha,0
same,phytotoxicity rating RICE,[22]; 250 g ai/ha,20
